Test results reported in patent US20080139664A1, “ANTI-GLYCATION AGENTS FOR PREVENTING AGE-, DIABETES-, AND SMOKING-RELATED COMPLICATIONS” (NATIONAL RESEARCH COUNCIL OF CANADA, priority 2001, published 2008).

Each molecule was assayed on bovine serum albumin (BSA) (assay: Fluorescamine assay of free primary amino groups of BSA incubated with D-ribose). Settings: free primary amino group on BSA after 5 days at 37° C.; agent at 16.8 times IC50; 64% without agent.
Assay type: biochemical
Protocol: Fluorescamine assay (Yeboah F. et al., J. Agric. Food Chem. 48, 2766-2774 (2000)) was performed on incubated mixtures of BSA and D-ribose, with or without the identified anti-glycation agents. The mixtures contained BSA (0.075 mM protein concentration or 4.53 mM of Lys residue concentration) and D-ribose (50 mM). […] The fluorescamine assay determines the number of free lysine residues of BSA. In this experiment, the final volume of the incubation mixtures was 10 mL and the incubation time was 5 days at 37° C. Prior to the fluorescamine assay, the proteins were isolated by reverse phase HPLC. The protein content was determined using the Bio-Rad protein determination reagent (Bradford method). The fluorescamine assay was done in triplicate.

SMILES | Unreacted amino group [%]
CNCC(=O)c1ccc(O)c(O)c1 [Adrenalone] | 45
O=C1C[C@@H](c2ccc(O)c(O)c2)Oc2cc(O)cc(O)c21 [Eriodictyol] | 43
O=[N+]([O-])c1ccc(O)c2ncccc12 [Nitroxoline] | 76
Cc1ncc([N+](=O)[O-])n1CC(O)CCl (stereo not drawn) [Ornidazole] | 60
CCCOC(=O)c1cc(O)c(O)c(O)c1 [Propyl gallate] | 28
O=c1c(O)cccc2cc(O)c(O)c(O)c12 [Purpurogallin] | 31
C[C@@](Cc1ccc(O)c(O)c1)(NN)C(=O)O [S(−)-Carbidopa] | 89

These molecules were tested on bovine serum albumin (BSA) (assay: not given). Settings: not given.

IC50 [µM] | SMILES
570 | Cc1ncc([N+](=O)[O-])n1CC(O)CCl (stereo not drawn) [Ornidazole]
330 | CCCOC(=O)c1cc(O)c(O)c(O)c1 [Propyl gallate]
140 | C[C@@](Cc1ccc(O)c(O)c1)(NN)C(=O)O [S(−)-Carbidopa]

These molecules were tested on lysozyme (assay: ESI-MS of lysozyme glycoforms after incubation with D-ribose). Settings: lysozyme + 2D-ribose − 2H2O (14,569 Da); 37° C., 5 days.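 Further: lysozyme incubated with D-ribose, with or without anti-glycation agents, then separated by reversed-phase HPLC and analysed by electrospray mass spectrometry.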
Protocol: The effect of anti-glycation agents on the accumulation of glycated forms (glycoforms) of protein was evaluated by using electrospray mass spectrometry (ESI-MS). As the molecular mass of BSA was too large to monitor the small mass changes of its glycoforms, lysozyme was incubated with D-ribose and anti-glycants. Lysozyme and its glycoforms were isolated by RP-HPLC and analyzed by mass spectrometry.
Samples of lysozyme (0.756 mM; 4.54 mM of Lys residues) and D-ribose (50 mM) were incubated in the presence and absence of the selected anti-glycation agents at 37° C. for 5 days and subjected to electrospray mass spectrometry (ESI-MS) in order to characterize the protein intermediates as well as carboxymethylated lysozyme. Prior to MS measurements, the proteins were isolated by reversed phase-HPLC and were semi-dried by freeze drying.

SMILES | Peak area as % of total area of all glycoforms, 14,569 [%]
CNCC(=O)c1ccc(O)c(O)c1 [Adrenalone] | 3.3
O=C1C[C@@H](c2ccc(O)c(O)c2)Oc2cc(O)cc(O)c21 [Eriodictyol] | 3.1
O=[N+]([O-])c1ccc(O)c2ncccc12 [Nitroxoline] | 1.4
Cc1ncc([N+](=O)[O-])n1CC(O)CCl (stereo not drawn) [Ornidazole] | 4.8
CCCOC(=O)c1cc(O)c(O)c(O)c1 [Propyl gallate] | 0.0
O=c1c(O)cccc2cc(O)c(O)c(O)c12 [Purpurogallin] | 3.6
C[C@@](Cc1ccc(O)c(O)c1)(NN)C(=O)O [S(−)-Carbidopa] | 0.0

Same assay, conditions: lysozyme + 2D-ribose − 3H2O (14,551 Da); 37° C., 5 days

SMILES | Peak area as % of total area of all glycoforms, 14,551 [%]
CNCC(=O)c1ccc(O)c(O)c1 [Adrenalone] | 1.3
O=C1C[C@@H](c2ccc(O)c(O)c2)Oc2cc(O)cc(O)c21 [Eriodictyol] | 1.6
O=[N+]([O-])c1ccc(O)c2ncccc12 [Nitroxoline] | 2.1
Cc1ncc([N+](=O)[O-])n1CC(O)CCl (stereo not drawn) [Ornidazole] | 3.4
CCCOC(=O)c1cc(O)c(O)c(O)c1 [Propyl gallate] | 0.0
O=c1c(O)cccc2cc(O)c(O)c(O)c12 [Purpurogallin] | 1.2
C[C@@](Cc1ccc(O)c(O)c1)(NN)C(=O)O [S(−)-Carbidopa] | 2.4

Same assay, conditions: lysozyme + 2D-ribose − 5H2O (14,533 Da); 37° C., 5 days

SMILES | Peak area as % of total area of all glycoforms, 14,533 [%]
CNCC(=O)c1ccc(O)c(O)c1 [Adrenalone] | 1.3
O=C1C[C@@H](c2ccc(O)c(O)c2)Oc2cc(O)cc(O)c21 [Eriodictyol] | 1.1
O=[N+]([O-])c1ccc(O)c2ncccc12 [Nitroxoline] | 1.2
Cc1ncc([N+](=O)[O-])n1CC(O)CCl (stereo not drawn) [Ornidazole] | 2.0
CCCOC(=O)c1cc(O)c(O)c(O)c1 [Propyl gallate] | 0.0
O=c1c(O)cccc2cc(O)c(O)c(O)c12 [Purpurogallin] | 0.9
C[C@@](Cc1ccc(O)c(O)c1)(NN)C(=O)O [S(−)-Carbidopa] | 0.8

Same assay, conditions: lysozyme + 2D-ribose − 6H2O (14,515 Da); 37° C., 5 days

SMILES | Peak area as % of total area of all glycoforms, 14,515 [%]
CNCC(=O)c1ccc(O)c(O)c1 [Adrenalone] | 1.5
O=C1C[C@@H](c2ccc(O)c(O)c2)Oc2cc(O)cc(O)c21 [Eriodictyol] | 0.0
O=[N+]([O-])c1ccc(O)c2ncccc12 [Nitroxoline] | 1.2
Cc1ncc([N+](=O)[O-])n1CC(O)CCl (stereo not drawn) [Ornidazole] | 0.9
CCCOC(=O)c1cc(O)c(O)c(O)c1 [Propyl gallate] | 0.0
O=c1c(O)cccc2cc(O)c(O)c(O)c12 [Purpurogallin] | 0.0
C[C@@](Cc1ccc(O)c(O)c1)(NN)C(=O)O [S(−)-Carbidopa] | 0.6

Same assay, conditions: lysozyme + D-ribose − 2H2O (14,419 Da); 37° C., 5 days

SMILES | Peak area as % of total area of all glycoforms, 14,419 [%]
CNCC(=O)c1ccc(O)c(O)c1 [Adrenalone] | 2.5
O=C1C[C@@H](c2ccc(O)c(O)c2)Oc2cc(O)cc(O)c21 [Eriodictyol] | 5.0
O=[N+]([O-])c1ccc(O)c2ncccc12 [Nitroxoline] | 7.8
Cc1ncc([N+](=O)[O-])n1CC(O)CCl (stereo not drawn) [Ornidazole] | 6.7
CCCOC(=O)c1cc(O)c(O)c(O)c1 [Propyl gallate] | 1.3
O=c1c(O)cccc2cc(O)c(O)c(O)c12 [Purpurogallin] | 4.1
C[C@@](Cc1ccc(O)c(O)c1)(NN)C(=O)O [S(−)-Carbidopa] | 3.2

Same assay, conditions: lysozyme + D-ribose − 3H2O (14,401 Da); 37° C., 5 days

SMILES | Peak area as % of total area of all glycoforms, 14,401 [%]
CNCC(=O)c1ccc(O)c(O)c1 [Adrenalone] | 1.7
O=C1C[C@@H](c2ccc(O)c(O)c2)Oc2cc(O)cc(O)c21 [Eriodictyol] | 0.4
O=[N+]([O-])c1ccc(O)c2ncccc12 [Nitroxoline] | 3.3
Cc1ncc([N+](=O)[O-])n1CC(O)CCl (stereo not drawn) [Ornidazole] | 0.0
CCCOC(=O)c1cc(O)c(O)c(O)c1 [Propyl gallate] | 0.0
O=c1c(O)cccc2cc(O)c(O)c(O)c12 [Purpurogallin] | 0.0
C[C@@](Cc1ccc(O)c(O)c1)(NN)C(=O)O [S(−)-Carbidopa] | 2.0

Same assay, conditions: lysozyme + D-ribose − H2O (14,437 Da); 37° C., 5 days

SMILES | Peak area as % of total area of all glycoforms, 14,437 [%]
CNCC(=O)c1ccc(O)c(O)c1 [Adrenalone] | 17.2
O=C1C[C@@H](c2ccc(O)c(O)c2)Oc2cc(O)cc(O)c21 [Eriodictyol] | 20.2
O=[N+]([O-])c1ccc(O)c2ncccc12 [Nitroxoline] | 11.0
Cc1ncc([N+](=O)[O-])n1CC(O)CCl (stereo not drawn) [Ornidazole] | 23.4
CCCOC(=O)c1cc(O)c(O)c(O)c1 [Propyl gallate] | 7.7
O=c1c(O)cccc2cc(O)c(O)c(O)c12 [Purpurogallin] | 22.2
C[C@@](Cc1ccc(O)c(O)c1)(NN)C(=O)O [S(−)-Carbidopa] | 18.4

Same assay, conditions: lysozyme + D-ribose − H2O with one carboxymethylated Lys residue (14,496 Da); 37° C., 5 days

SMILES | Peak area as % of total area of all glycoforms, 14,496 [%]
CNCC(=O)c1ccc(O)c(O)c1 [Adrenalone] | 2.2
O=C1C[C@@H](c2ccc(O)c(O)c2)Oc2cc(O)cc(O)c21 [Eriodictyol] | 0.0
O=[N+]([O-])c1ccc(O)c2ncccc12 [Nitroxoline] | 1.0
Cc1ncc([N+](=O)[O-])n1CC(O)CCl (stereo not drawn) [Ornidazole] | 0.0
CCCOC(=O)c1cc(O)c(O)c(O)c1 [Propyl gallate] | 0.0
O=c1c(O)cccc2cc(O)c(O)c(O)c12 [Purpurogallin] | 0.0
C[C@@](Cc1ccc(O)c(O)c1)(NN)C(=O)O [S(−)-Carbidopa] | 0.9

Same assay, conditions: lysozyme with one carboxymethylated Lys residue (14,364 Da); 37° C., 5 days

SMILES | Peak area as % of total area of all glycoforms, 14,364 [%]
CNCC(=O)c1ccc(O)c(O)c1 [Adrenalone] | 4.8
O=C1C[C@@H](c2ccc(O)c(O)c2)Oc2cc(O)cc(O)c21 [Eriodictyol] | 1.9
O=[N+]([O-])c1ccc(O)c2ncccc12 [Nitroxoline] | 4.2
Cc1ncc([N+](=O)[O-])n1CC(O)CCl (stereo not drawn) [Ornidazole] | 3.2
CCCOC(=O)c1cc(O)c(O)c(O)c1 [Propyl gallate] | 4.4
O=c1c(O)cccc2cc(O)c(O)c(O)c12 [Purpurogallin] | 0.0
C[C@@](Cc1ccc(O)c(O)c1)(NN)C(=O)O [S(−)-Carbidopa] | 3.7

Same assay, conditions: unmodified lysozyme (14,305 Da); 37° C., 5 days

SMILES | Peak area as % of total area of all glycoforms, 14,305 [%]
CNCC(=O)c1ccc(O)c(O)c1 [Adrenalone] | 59.3
O=C1C[C@@H](c2ccc(O)c(O)c2)Oc2cc(O)cc(O)c21 [Eriodictyol] | 66.7
O=[N+]([O-])c1ccc(O)c2ncccc12 [Nitroxoline] | 66.7
Cc1ncc([N+](=O)[O-])n1CC(O)CCl (stereo not drawn) [Ornidazole] | 54.2
CCCOC(=O)c1cc(O)c(O)c(O)c1 [Propyl gallate] | 86.6
O=c1c(O)cccc2cc(O)c(O)c(O)c12 [Purpurogallin] | 67.9
C[C@@](Cc1ccc(O)c(O)c1)(NN)C(=O)O [S(−)-Carbidopa] | 67.9

The molecules below were run on bovine serum albumin (BSA) (assay: Maillard fluorescence-based assay of AGEs formation, IC50 determination (BSA + D-ribose)). Settings: inhibition of Maillard fluorescence development; 0.075 mM BSA, 50 mM D-ribose, 37° C., 5 days.
Protocol: During the glycation reaction between proteins and reducing sugars, a specific fluorescence with excitation and emission wavelength of 370 nm and 440 nm, respectively, is observed. […] The assay was based on the progressive development of the characteristic Maillard fluorescence (370 nm Ex and 440 nm Em) during the progress of the glycation reaction.
The final assay volume was 200 μl and each assay well contained 0.075 mM BSA, and 50 mM D-ribose. Compounds were assayed at 3 different concentration levels (0.003, 0.03, and 0.3 mg/mL) to determine the effect of concentration on inhibition. Samples were incubated for 5 days.
The Maillard fluorescence was directly measured from the reaction solution, except for the anti-glycants that quenched the Maillard fluorescence, which were analyzed by the earlier-described HPLC method.
Solutions were incubated in microtitre plates (96 wells) at 37° C. for 5 days in a closed system.
After one hour incubation at 37° C., fluorescence readings were taken.
The IC50 values of the compounds that quenched the fluorescence of the glycated BSA were analyzed by on-line monitoring of the fluorescence of the glycated BSA separated from the fluorescence quenching assay compound by RP-HPLC. The elution profile was monitored by UV-diode array and by fluorescence (λex=370 nm, λem=440 nm). […] The incubation conditions were the same as above.

IC50 [µM] | SMILES
250 | O=C1C[C@@H](c2ccc(O)c(O)c2)Oc2cc(O)cc(O)c21 [Eriodictyol]
300 | O=[N+]([O-])c1ccc(O)c2ncccc12 [Nitroxoline]
76 | O=c1c(O)cccc2cc(O)c(O)c(O)c12 [Purpurogallin]

SMILES | IC50 [µM]
CNCC(=O)c1ccc(O)c(O)c1 [Adrenalone] | 57
